Data as given in US20250275981A1, “HOMOHARRINGTONINE AND PACLITAXEL COMBINATION FOR THE TREATMENT OF BREAST CANCER” (priority 2022, published 2025).
Read-outs that look alike come from different tables or passages of the source.

Legend:
HCC1395 = assay: Cell viability drug titration (EC50), 4 days of drug treatment; format: cell-based; conditions: Homo sapiens
Source text: (§1) Significance was defined as p<0.05.

HCC1806+HA-CREB3L1 cells = assay: as above; format: cell-based; conditions: Homo sapiens, 96 h, single agent
Source text: as §1

HCC38 = assay: as above; format: cell-based; conditions: Homo sapiens
Source text: as §1

Hs578T = assay: as above; format: cell-based; conditions: Homo sapiens, Hs-578T, 96 h
Source text: as §1

HCC1806 cells = assay: cells; format: cell-based
Source text: as §1

MCF10A cells = system: MCF10A cells
Protocol: Cells were authenticated by the supplier (http://www.ATCC.org) and cultured as recommended by ATCC for less than six months from the time of resuscitation. HCC1806, HCC1428 and T47D cells stably expressing triple hemagglutinin (HA)-tagged CREB3L1 (HA-CREB3L1) have been described and characterized previously.
Cells were allowed to attach and grow at 37° C. and 5% CO2. The following day the media was carefully removed from each well and replaced with drug-containing media in triplicate wells, again using the ASSIST PLUS. After 4 days of drug treatment cells were stained with Hoechst and ImageIT® Dead Green to quantify total and live cells as detailed below.
Images of each well of the 384-well plates were acquired using a Thermo Scientific® CellInsight® CX7 High Content Screening (HCS) Platform. Nine fields of view were captured using a 10×(0.4 NA) air objective lens. Images were analyzed using Thermo Scientific HCS Studio® 3 Cell Analysis Software using the Spot Detector bio-application (Cellomics®). Total cells were identified and counted by their Hoechst-stained nuclei at 386 nm (blue) channel 1 (Ch1) and dead cells were quantified from the ImageIT® Dead Green on the 485 nm wavelength (green) channel 2 (Ch2). […] The test well total live cell count was divided by the average of the corresponding solvent control total live cell count, giving the percentage cell viability (% viability). The mean±standard error of the mean (SEM) of the % viability of each set of triplicate wells was determined.
Drug titration experiments were carried out as described for the secondary drug screens, except a range of drug concentrations were tested. […] EC values were determined using PRISM software (GraphPad, v9.2.0) using non-linear curve fit. A student's t-test was used to determine statistically significant differences between the EC values for the two cell lines. Significance was defined as p<0.05.

MCF7 = assay: Cell viability drug titration (EC50), 4 days of drug treatment; format: cell-based; conditions: Homo sapiens
Source text: as §1

BT549 = assay: as above; format: cell-based; conditions: Homo sapiens, BT-549, 96 h
Source text: as §1

ZR-75-1 = assay: as above; format: cell-based; conditions: Homo sapiens
Source text: as §1

T47D + HA-CREB3L1 = assay: as above; format: cell-based; conditions: Homo sapiens, 96 h
Source text: as §1

MDA-MB-436 = assay: as above; format: cell-based; conditions: Homo sapiens
Source text: as §1

HCC1428 = assay: as above; format: cell-based; conditions: for drug sensitivity of HCC1428 as compared to the corresponding CREB3L1-expressing cells: HCC1428 vs HCC1428 + HA-CREB3L1; for EC50: Homo sapiens
Source text: as §1

HCC1428 + HA-CREB3L1 = assay: as above; format: cell-based; conditions: Homo sapiens
Source text: as §1

T47D = assay: as above; format: cell-based; conditions: Homo sapiens, 96 h
Source text: as §1

MDA-MB-157 = assay: as above; format: cell-based; conditions: Homo sapiens, MDA-MB-157, 96 h
Source text: as §1

TNBC = conditions: combined with docetaxel, reference [23]; cited from earlier work
[1] = system: MDA-MB-231 TNBC xenografts; conditions: cited from earlier work
[2] = system: anti-apoptotic proteins, including MCL-1, BCL-2 and surviving; conditions: several TNBC cell lines; reference [21]; cited from earlier work
[3] = 96 h, HCC1395 parental (TNBC), single agent, 4 days, read-out: EC50
[4] = 96 h, HCC38 parental (TNBC), single agent, 4 days, read-out: EC50
[5] = Hs578T parental (TNBC), single agent, 4 days, read-out: EC50
[6] = Homo sapiens, HCC1806, 96 h, HCC1806 parental (CREB3L1-deficient TNBC), single agent, 4 days of drug treatment, read-out: EC50
[7] = 96 h, MCF7 parental (Luminal A, ER+), single agent, 4 days, read-out: EC50
[8] = BT549 parental (TNBC), single agent, 4 days, read-out: EC50
[9] = 96 h, ZR-75-1 parental (Luminal A, ER+), single agent, 4 days, read-out: EC50
[10] = T47D + HA-CREB3L1, single agent, 4 days, read-out: EC50
[11] = 96 h, MDA-MB-436 parental (TNBC), single agent, 4 days, read-out: EC50
[12] = 96 h, HCC1428 parental (Luminal A, ER+), single agent, 4 days, read-out: EC50
[13] = 96 h, HCC1428 + HA-CREB3L1, single agent, 4 days, read-out: EC50
[14] = T47D parental (Luminal A, ER+), single agent, 4 days, read-out: EC50

EC50 (HCC1806+HA-CREB3L1 cells) | Structure (SMILES) | EC50 (HCC1395; [3]) | EC50 (HCC38; [4]) | EC50 (Hs578T; [5]) | EC50 (HCC1806 cells; [6]) | cytotoxicity towards non-tumorigenic MCF10A cells as compared to HCC1806 cells (MCF10A cells) | EC50 (MCF7; [7]) | EC50 (BT549; [8]) | EC50 (ZR-75-1; [9]) | EC50 (T47D + HA-CREB3L1; [10]) | EC50 (MDA-MB-436; [11]) | drug sensitivity of HCC1428 as compared to the corresponding CREB3L1-expressing cells (HCC1428) | EC50 (HCC1428; [12]) | EC50 (HCC1428 + HA-CREB3L1; [13]) | EC50 (T47D; [14]) | cytotoxicity towards CREB3L1-deficient HCC1806 as compared to HCC1806+HA-CREB3L1 cells (HCC1806 cells; drug titration, 4 days, FIG. 2) | further results
1.2 ± 0.4 nM | CC(=O)O[C@H]1C(=O)[C@@]2(C)[C@H]([C@H](OC(=O)c3ccccc3)[C@]3(O)C[C@H](OC(=O)[C@H](O)[C@@H](NC(=O)c4ccccc4)c4ccccc4)C(C)=C1C3(C)C)[C@]1(OC(C)=O)CO[C@@H]1C[C@@H]2O [Paclitaxel, (2α,4α,5β,7β,10β,13α)-4, 10-Bis(acetyloxy)-13-{[(2R,3S)-3-(benzoylamino)-2-hydroxy-3-phenylpropanoyl]oxy}-1,7-dihydroxy-9-oxo-5,20-epoxytax-11-en-2-yl benzoate] | 12 nM | 2.4 nM | 7.4 nM | 1.2 ± 0.5 nM | – | – | – | – | – | – | – | – | – | – | – | –
17 ± 6 nM | COc1cccc2c1C(=O)c1c(O)c3c(c(O)c1C2=O)C[C@@](O)(C(=O)CO)C[C@@H]3O[C@H]1C[C@H](N)[C@H](O)[C@H](C)O1 [Doxorubicin, doxorubicin] | – | – | – | 13 ± 4 nM | – | – | – | – | – | – | – | – | – | – | – | EC50 (HCC1806 cells; HCC1806 parental (CREB3L1-deficient TNBC), single agent, 4 days of drug treatment, read-out: EC50): 13.2 nM
1300 ± 490 nM | CC(=O)c1c(C)c2cnc(Nc3ccc(N4CCNCC4)cn3)nc2n(C2CCCC2)c1=O [Palbociclib Isethionate, palbociclib isethionate] | 4000 ± 2000 nM | 210 ± 70 nM | 3200 ± 1400 nM | 500 nM | very sensitive | 4400 ± 3500 nM | 12600 ± 4800 nM | 710 ± 350 nM | 7200 ± 9200 nM | 17000 ± 14000 nM | – | 21 ± 15 nM | 160 ± 250 nM | 13 ± 9.8 µM | showed a preference for killing the more metastatic CREB3L1-deficient HCC1806 TNBC cells | –
– | Cc1c(-c2c(-c3ccc(F)o3)sc3ncnc(O[C@H](Cc4ccccc4OCc4ccnn4CC(F)(F)F)C(=O)O)c23)ccc(OCCN2CCN(C)CC2)c1Cl [S63845] | – | – | – | – | – | – | – | – | – | – | – | – | – | – | – | synergistic activity with docetaxel (TNBC): synergistic activity
– | CC(=O)O[C@H]1C[C@H](O[C@H]2[C@@H](O)C[C@H](O[C@H]3[C@@H](O)C[C@H](O[C@H]4CC[C@@]5(C)[C@H](CC[C@@H]6[C@@H]5C[C@@H](O)[C@]5(C)[C@@H](C7=CC(=O)OC7)CC[C@]65O)C4)O[C@@H]3C)O[C@@H]2C)O[C@H](C)[C@H]1O[C@@H]1O[C@H](CO)[C@@H](O)[C@H](O)[C@H]1O [Lanatoside C, lanatoside C] | – | – | – | – | very sensitive | – | – | – | – | – | the opposite was true | – | – | – | – | EC50 (MCF7; MCF7, 96 h): 450 ± 490 nM; EC50 (BT549): 42 ± 12 nM; EC50 (ZR-75-1; ZR-75-1, 96 h): 650 ± 510 nM; EC50 (T47D + HA-CREB3L1; T47D): 89 ± 34 nM; EC50 (MDA-MB-436; MDA-MB-436, 96 h): 460 ± 250 nM; EC50 (HCC1428; HCC1428, 96 h): 35 ± 8 nM; EC50 (HCC1395; HCC1395, 96 h): 510 ± 300 nM; EC50 (HCC1428 + HA-CREB3L1; HCC1428, 96 h): 32 ± 8 nM; EC50 (T47D; T47D): 0.5 ± 0.05 µM; EC50 (HCC38; HCC38, 96 h): 300 ± 100 nM; EC50 (MDA-MB-157): 550 ± 240 nM; EC50 (Hs578T): 1000 ± 800 nM; cytotoxicity towards CREB3L1-deficient HCC1806 as compared to HCC1806+HA-CREB3L1 cells (HCC1806 cells): showed a preference for killing the more metastatic CREB3L1-deficient HCC1806 TNBC cells; EC50 (HCC1806 cells; Homo sapiens, HCC1806, 96 h): 143 nM

Structure (SMILES) | EC50 (HCC1806+HA-CREB3L1 cells) | EC50 (HCC1395; [3]) | EC50 (HCC38; [4]) | EC50 (Hs578T; [5]) | EC50 (HCC1806 cells; [6]) | cytotoxicity towards non-tumorigenic MCF10A cells as compared to HCC1806 cells (MCF10A cells) | EC50 (MCF7; [7]) | EC50 (BT549; [8]) | EC50 (ZR-75-1; [9]) | EC50 (T47D + HA-CREB3L1; [10]) | EC50 (MDA-MB-436; [11]) | drug sensitivity of HCC1428 as compared to the corresponding CREB3L1-expressing cells (HCC1428) | EC50 (HCC1428; [12]) | EC50 (HCC1428 + HA-CREB3L1; [13]) | EC50 (T47D; [14]) | cytotoxicity towards CREB3L1-deficient HCC1806 as compared to HCC1806+HA-CREB3L1 cells (HCC1806 cells; drug titration, 4 days, FIG. 2) | further results
Nc1nc(Cl)nc2c1ncn2[C@H]1C[C@H](O)[C@@H](CO)O1 [Cladribine, cladribine] | 182 ± 60 nM | 10100 ± 1200 nM | 65 ± 56 nM | 5700 ± 1200 nM | 92 nM | Little or no cytotoxicity | 3400 ± 2100 nM | 178 ± 84 nM | 750 ± 350 nM | 1800 ± 1300 nM | 660 ± 180 nM | increased drug sensitivity | 740 ± 330 nM | 2200 ± 1700 nM | 9.6 ± 1.8 µM | showed a preference for killing the more metastatic CREB3L1-deficient HCC1806 TNBC cells | EC50 (MDA-MB-157; read-out: EC50): 5000 ± 4300 nM
COC(=O)C[C@](O)(CCCC(C)(C)O)C(=O)O[C@@H]1C(OC)=C[C@]23CCCN2CCc2cc4c(cc2[C@H]13)OCO4 [Homoharringtonine, 1-((1S,3aR,14bS)-2-Methoxy-1,5,6,8,9,14b-hexahydro-4H-cyclopenta(a)(1,3)dioxolo(4,5-h)pyrrolo (2,1-b)(3)benzazepin-1-yl) 4-methyl (2R)-2-hydroxy-2-(4-hydroxy-4-methylpentyl)butanedioate] | 42 ± 7 nM | 104 ± 31 nM | 58 ± 10 nM | 42 ± 24 nM | 29 nM | similar | 18 ± 9 nM | 89 ± 10 nM | 117 ± 35 nM | 88 ± 55 nM | 33 ± 36 nM | the opposite was true | 9 ± 3 nM | 10 ± 3 nM | 0.4 ± 0.18 µM | showed a preference for killing the more metastatic CREB3L1-deficient HCC1806 TNBC cells | EC50 (MDA-MB-157; read-out: EC50): 7.5 ± 1.2 nM; tumor growth ([1]; MDA-MB-231 TNBC xenografts, mice, reference [21]): reduced tumor growth; general toxicity for the mice ([1]; mouse, in vivo): without general toxicity; expression of anti-apoptotic proteins, including MCL-1, BCL-2 and surviving [2]: rapidly reduce the expression
